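These data come from cells grown in 96-well plates and exposed to compound for 48 hours at five concentrations. At the GI50, growth is halved.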 Calls of active or inactive are those of the source. No stated cut-off is given here; in the data, active = GI50 up to about 1.1 µM and inactive = higher.
Columns and labels:
Experiment in all cases: DTP human tumour cell line panel, 48 h
HCT-116 = tested on: HCT-116
SF-295 = tested on: SF-295
ACHN = tested on: ACHN
CAKI-1 = tested on: CAKI-1
RXF 393 = tested on: RXF 393
A498 = tested on: A498
Hs-578T = tested on: Hs-578T
SK-MEL-5 = tested on: SK-MEL-5
NCI-H226 = tested on: NCI-H226
IGROV-1 = tested on: IGROV-1
SN12C = tested on: SN12C
OVCAR-8 = tested on: OVCAR-8
CCRF-CEM = tested on: CCRF-CEM
M14 = tested on: M14
SK-MEL-2 = tested on: SK-MEL-2
PC-3 = tested on: PC-3
LOX IMVI = tested on: LOX IMVI
SW-620 = tested on: SW-620
SNB-75 = tested on: SNB-75
NCI-H522 = tested on: NCI-H522

Measured: GI50

Cc1c(C(=O)OCc2ccccc2)[n+]([O-])c2cc(Cl)c(Cl)cc2[n+]1[O-]
inactive: HCT-116 14.2 µM | SF-295 16.8 µM | ACHN 21.4 µM | CAKI-1 13 µM | RXF 393 19.1 µM | A498 20.5 µM | Hs-578T 19.2 µM | SK-MEL-5 15 µM | NCI-H226 5.77 µM | IGROV-1 5.83 µM | SN12C 18.1 µM | OVCAR-8 18.2 µM | CCRF-CEM 14.8 µM | M14 15 µM | SK-MEL-2 17.4 µM | PC-3 15.7 µM | LOX IMVI 17.2 µM

CCOC(=O)c1c(N)sc2c1C(C(=O)OCC)CC2 (stereo unspecified)
inactive: HCT-116 48.4 µM | ACHN > 100 µM | RXF 393 > 100 µM | A498 14.3 µM | Hs-578T 93.8 µM | SK-MEL-5 > 100 µM | NCI-H226 > 100 µM | IGROV-1 44.7 µM | SN12C 40.5 µM | OVCAR-8 > 100 µM | SW-620 > 100 µM | M14 > 100 µM | SK-MEL-2 > 100 µM | PC-3 34.4 µM | SNB-75 79.3 µM

CC(C)SC(NC(=O)C1C(C)(C)CCC1(C)C)C(=O)O (stereo unspecified)
inactive: HCT-116 > 100 µM | ACHN > 100 µM | A498 > 100 µM | Hs-578T > 100 µM | SK-MEL-5 > 100 µM | NCI-H226 > 100 µM | IGROV-1 > 100 µM | SN12C > 100 µM | OVCAR-8 > 100 µM | SW-620 > 100 µM | CCRF-CEM > 100 µM | M14 > 100 µM | SK-MEL-2 > 100 µM | PC-3 > 100 µM | LOX IMVI > 100 µM | SNB-75 > 100 µM

COc1ccc2c(c1)C(=O)CC(N)C2 (stereo unspecified)
inactive: HCT-116 > 100 µM | SF-295 > 100 µM | ACHN > 100 µM | CAKI-1 > 100 µM | RXF 393 > 100 µM | NCI-H522 > 100 µM | Hs-578T 42.2 µM | SK-MEL-5 > 100 µM | NCI-H226 67.8 µM | IGROV-1 > 100 µM | SN12C > 100 µM | OVCAR-8 > 100 µM | SW-620 > 100 µM | CCRF-CEM 64.9 µM | M14 > 100 µM | SK-MEL-2 > 100 µM | PC-3 42 µM | LOX IMVI > 100 µM | SNB-75 25.1 µM

O=C(CSCC(=O)N/N=C\c1cc(Br)cc(Br)c1O)N/N=C\c1cc(Br)cc(Br)c1O
inactive: HCT-116 19.6 µM | SF-295 33.6 µM | ACHN 12.9 µM | CAKI-1 23.4 µM | RXF 393 83.9 µM | NCI-H522 11.7 µM | Hs-578T 16.1 µM | SK-MEL-5 25 µM | NCI-H226 17.7 µM | IGROV-1 16.6 µM | SN12C 27.8 µM | OVCAR-8 18.9 µM | SW-620 37 µM | M14 11.6 µM | SK-MEL-2 9.55 µM | PC-3 23.7 µM | LOX IMVI 6.68 µM | SNB-75 24 µM

COC(=O)/C=C1\C(CO[Si](C)(C)C(C)(C)C)OC(n2cc(C)c(=O)n(C)c2=O)C1O[Si](C)(C)C(C)(C)C (stereo unspecified)
inactive: HCT-116 71.4 µM | SF-295 > 100 µM | ACHN > 100 µM | NCI-H522 78 µM | A498 > 100 µM | Hs-578T > 100 µM | SK-MEL-5 69.7 µM | NCI-H226 > 100 µM | IGROV-1 > 100 µM | SN12C > 100 µM | OVCAR-8 > 100 µM | SW-620 > 100 µM | CCRF-CEM > 100 µM | M14 > 100 µM | SK-MEL-2 > 100 µM | PC-3 48.5 µM | LOX IMVI 89.5 µM | SNB-75 > 100 µM

O=C(c1ccco1)N1CCN(C(=O)c2ccco2)C1=S
inactive: HCT-116 9.86 µM | SF-295 18.5 µM | ACHN 8.07 µM | CAKI-1 4.72 µM | RXF 393 2.88 µM | NCI-H522 3.91 µM | Hs-578T 20.7 µM | SK-MEL-5 10.1 µM | NCI-H226 28.7 µM | IGROV-1 9.64 µM | SN12C 4.18 µM | OVCAR-8 11 µM | SW-620 5.66 µM | CCRF-CEM 1.77 µM | M14 6.22 µM | SK-MEL-2 13 µM | PC-3 4.78 µM | LOX IMVI 3.59 µM | SNB-75 10.4 µM

O=S(=O)(N/C(=N\O)Nc1ccc(Cl)cc1)c1cc(C(F)(F)F)cc(C(F)(F)F)c1
inactive: HCT-116 17.5 µM | SF-295 18.3 µM | ACHN 17.3 µM | CAKI-1 16.9 µM | RXF 393 19 µM | NCI-H522 18.9 µM | Hs-578T 23 µM | SK-MEL-5 18 µM | NCI-H226 19.1 µM | IGROV-1 16.9 µM | SN12C 17.5 µM | OVCAR-8 18.7 µM | SW-620 34.3 µM | CCRF-CEM 40.7 µM | M14 17.4 µM | SK-MEL-2 17.4 µM | PC-3 17.5 µM | LOX IMVI 18.5 µM | SNB-75 16 µM

From ChEMBL document CHEMBL1201862, “PubChem BioAssay data set” (2004)
